Results as given in PMC7200204 (Ecotoxicology and environmental safety, 2020).
In brackets after ≈: the same amount, converted by molar mass.

System: anti-1-NAP monoclonal antibody (mAb)
Assay: ciELISA with the obtained mAb under optimized conditions
Assay type: binding, mouse
Conditions: for CR (cross-reactivity): CR (%) = [IC50 (NAP)/IC50 (cross-reactant)] × 100, n=3; for IC50: Table 2, optimized condition, n=3

Row | SMILES | CR (cross-reactivity) [%] | IC50 [µg/mL]
1 | Oc1cccc2c(O)cccc12 [1,5-dihydroxy naphthalene] | 14.3 | 0.0874 (≈ 0.546 µM)
2 | Oc1ccc2cc(O)ccc2c1 [2,6-dihydroxy naphthalene] | 0.4 | 2.8397 (≈ 17.7 µM)
3 | Oc1ccc2cccc(O)c2c1 [1,7-dihydroxy naphthalen] | 1.4 | 0.8817 (≈ 5.5 µM)
4 | CNC(=O)Oc1cccc2ccccc12 [Carbaryl] | 4.2 | 0.3007 (≈ 1.49 µM)
5 | Oc1cccc2cccc(O)c12 [1,8-dihydroxy naphthalene] | 0.3 | 4.3034 (≈ 26.9 µM)
6 | Oc1cccc2ccccc12 [Hapten 1-naphthol, 1-naphthol] | 100 | 0.0125 (≈ 0.0867 µM)
7 | Oc1ccc2c(O)cccc2c1 [1,6-dihydroxy naphthalene] | 2.5 | 0.5028 (≈ 3.14 µM)
8 | Oc1ccc(O)c2ccccc12 [1,4-dihydroxy naphthalene] | 6.2 | 0.2007 (≈ 1.25 µM)
9 | Oc1ccc2ccccc2c1 [Hapten 2-naphthol, 2-naphthol] | 1.2 | 1.005 (≈ 6.97 µM)
10 | Oc1cc(O)c2ccccc2c1 [1,3-dihydroxy naphthalene] | 6.9 | 0.178 (≈ 1.11 µM)
